US10174202B2, “Dyes with phosphinic acid, phosphinate, phosphonate and phosphonamidate substituents as auxochromic groups and methods for preparing the same” (Max-Planck-Gesellschaft zur Foerderung der Wissenschaften …, priority 2017, dated 2019)
Where “and” joins values, the source holds several entries; their conditions need not be identical. Identical values can stand only once. Marks after values point to notes of the source that are not given here.

Key:
Fluorescence lifetime = assay type: physicochemical
[1] = Emission spectra and fluorescence quantum yield; assay type: physicochemical
Description: (§1) Absorption spectra were recorded with a Varian Cary 4000 UV-Vis double-beam spectrophotometer (Agilent Technologies, USA). For the determination of the absorption spectra, quartz cells with a 1 cm path length were used. Emission spectra and fluorescence quantum yield were obtained on a Quantaurus-QY Absolute PL quantum yield spectrometer C11347 (Hamamatsu Photonics, Japan) or on a Varian Cary Eclipse fluorescence spectrometer (Agilent Technologies, USA).

[2] = Absorption spectroscopy (UV/Vis); assay type: physicochemical
Description: as §1

[3] = tested on: vimentin-HaloTag fusion protein in a living HeLa cell; assay: Confocal and STED imaging of vimentin-HaloTag in living cells; assay type: cell-based; parameters: key to verified as a label in STED microscopy: verified as a label in super-resolution microscopy based on stimulated emission depletion (STED with 775 nm STED laser)
Description: (§2) STED and confocal counterpart images were acquired using the commercially available two-color STED 775 quad scanning microscope from Abberior Instruments (Gottingen, Germany) equipped with an Olympus IX83 microscope stand and an Olympus UplanSApo 100×/1.4 OIL objective. Dyes were excited respective their excitation; the STED laser was pulsed at 775 nm.
(§3) For these experiments, STED optical microscopy was performed as indicated above.
The vimentin-HaloTag was labeled with 16-Halo (1 μM for 20 min at growth conditions, 10 min wash) and excited using a pulsed 594 nm laser. Fluorescence was detected in both available detection channels (605-625 nm, 655-715nm) and summed up for the final images. Scale bar: 4 μm; pixel dwell time: 10 μs; pixel size: 20 nm for both the STED and the confocal image. Each line was scanned four times, and the counts were accumulated.

[4] = tested on: tubulin filaments in a methanol-fixed Vero cell; assay: Confocal and STED imaging of immunolabelled tubulin filaments; assay type: cell-based; parameters: key to verified as a label in STED microscopy: verified as a label in super-resolution microscopy based on stimulated emission depletion (STED with 775 nm STED laser)
Description: as §2, §3
Tubulin was marked using a mouse monoclonal primary antibody against alpha-tubulin together with secondary antibody detection (sheep-anti-mouse conjugated with the dye 23-NHS). 23 was excited using a pulsed 485 nm laser. Fluorescence was detected in both available detection channels (605-625 nm, 655-715nm) and summed up for the final images. Scale bar: 4 μm; pixel dwell time: 10 μs; pixel size: 25 nm for both the STED and the confocal image. Each line in the STED channel was scanned twice, and the counts were accumulated.

| Structure (SMILES) | fluorescence lifetime (Fluorescence lifetime; in aq. PBS, pH 7.4) [ns] | QY (fluorescence quantum yield, Φfl) ([1]; in aq. PBS, pH 7.4) | Emission max. ([1]; in methanol) [nm] | QY (fluorescence quantum yield, Φfl) ([1]; in methanol) | Absorption max. ([2]; in aq. PBS, pH 7.4) [nm] | ε at absorption max. ([2]; in aq. PBS, pH 7.4) [M⁻¹ cm⁻¹] | Absorption max. ([2]; in methanol) [nm] | ε at absorption max. ([2]; in methanol) [M⁻¹ cm⁻¹] | Stability (Stability of the dyes) | further results |
| --- | --- | --- | --- | --- | --- | --- | --- | --- | --- | --- |
| CN(C)c1ccc2c(P(=O)(Oc3ccccc3C(=O)[O-])N(C)C)c3ccc(=[N+](C)C)cc-3oc2c1 (stereo not shown) [Compound 9, 2-[[3,6-Bis(dimethylamino)-9H-xanthenylium-9yl](dimethylamino)phosphoryloxy]-benzoate] | 1.88 | 0.09 | 622 | 0.36 | 603 | 69000 | 589 | 49000 | moderate | Emission max. ([1]; in aq. PBS, pH 7.4): 638 nm; Stokes shift ([1]; in aq. PBS, pH 7.4): 35 nm; Stokes shift ([1]; in methanol): 33 nm |
| CCN(CC)CC.CN(CCCCCC(=O)[O-])C(=O)CCP(=O)(O)c1c2ccc(N(C)C)cc2[o+]c2cc(N(C)C)ccc12 [Compound 16, Triethylammonium 6-[3-[[3,6-bis(dimethylamino)-9H-xanthenylium-9-yl]oxidophosphoryl]-N-methylpropanamido]hexanoate] | – | – | – | – | – | – | – | – | – | Emission max. ([1]; pH 7.4): 636 nm and 636 ^ (0.30)^b nm; Stokes shift ([1]; pH 7.4): 33^b nm; ε at absorption max. ([2]; pH 7.4): 10750 M⁻¹ cm⁻¹; verified as a label in STED microscopy ([3]; STED with 775 nm STED laser): good^f |
| CN(C)c1ccc2c(P(=O)([O-])CCC(=O)NCCOCCOCCCCCCCl)c3ccc(=[N+](C)C)cc-3oc2c1 [Compound 16-Halo, 3-[[2[2-(6-chlorohexyloxy)ethoxy]ethyl]amino]-3-oxopropyl[6-(dimethylamino)-3-(dimethyliminio)-3H-xanthen-9-yl]phosphinate] | – | – | – | – | – | – | – | – | – | labelling of vimentin-HaloTag ([3]; 1 μM for 20 min at growth conditions, 10 min wash, excitation 594 nm): labeled |
| COP(=O)([c+]1c2ccc(N(C)C)cc2sc2cc(N(C)C)ccc21)N(C(C)C)C(C)C.O=C([O-])C(F)(F)F (stereo not shown) [Compound 21, 9-[(Diisopropylamino)(methoxy)phosphoryl]-3,6-bis(dimethylamino)-9H-thioxanthen-9-ylium trifluoroacetate] | – | – | – | – | – | – | – | – | moderate | fluorescence lifetime (Fluorescence lifetime; in acetonitrile): 0.77 ns; Emission max. ([1]; in acetonitrile): 728 nm; QY (fluorescence quantum yield, Φfl) ([1]; in acetonitrile): 0.10; Stokes shift ([1]; in acetonitrile): 74^a nm; Absorption max. ([2]; in acetonitrile): 654 nm; ε at absorption max. ([2]; in acetonitrile): 64000 M⁻¹ cm⁻¹ |
| CN(C)c1ccc2c([PH](=O)O)c3ccc(N(C)C)cc3[n+](CCCC(=O)O)c2c1.O=C([O-])C(F)(F)F [Compound 23, 10-(3-Carboxypropyl)-3,6-bis(dimethylamino)-9-(hydroxyhydrophosphoryl)acridinium trifluoroacetate] | 1.36 | 0.14 and 0.10 | 579 | 0.75 | 535 | 38000 | 527 | 67000 | – | verified as a label in STED microscopy ([4]; STED with 775 nm STED laser): f |
| CN(C)c1ccc2c([PH](=O)[O-])c3ccc(N(C)C)cc3[n+](CCCC(=O)ON3C(=O)CCC3=O)c2c1 [Compound 23-NHS, [10-(3-Carboxypropyl)-3,6-bis(dimethylamino)acridinium-9-yl]phosphinate NHS ester] | – | – | – | – | – | – | – | – | – | labelling of tubulin via secondary antibody conjugate ([4]; sheep-anti-mouse antibody conjugated with the dye, excitation 485 nm): marked |
